The target in one assay is human PI3K(p110α/p85α) (Homo sapiens, UniProt P42336). As to the kind of experiment: Measurement of PI3K inhibitory activity (AlphaScreen GST Detection Kit). As to conditions: 10 μM ATP, 4 μM PI(4,5)P2, read-out: Enzyme inhibitory activity (IC50, μM) PI3K α. In kind it is biochemical. On the procedure:
The inhibitory activity of compounds of the present invention represented by formula (I) were measured with human PI3K(p110α/p85α) prepared in a baculovirus expression system using the AlphaScreen GST Detection Kit (Perkin Elmer, Inc.). A predetermined concentration of the compound dissolved in dimethylsulfoxide (DMSO) and PI3K were mixed in a 384-well assay plate and after allowing to stand for 20 minutes at room temperature, 4 μM PI(4,5)P2 (Echelon Corporation) and 10 μM ATP (5 mM Hepes, pH 7.5, 2.5 mM MgCl2) were added to initiate the reaction. After reacting for 15 minutes at 37° C., GST-GRP1 expressed and purified from Escherichia coli, Anti-GST Acceptor Beads (Perkin Elmer, Inc.), Streptavidin Donor Beads (Perkin Elmer, Inc.) and biotin-PI(3,4,5) P3 (Echelon Corporation) (10 mM Tris-HCl pH 7.4, 150 mM NaCl, 7.5 mM EDTA, 1 mM DTT, 0.1% Tween 20) were added, and after allowing to stand for 1 hour at room temperature, light at 520 to 620 nm emitted as a result of exciting with light at 680 nm was measured with the Envision measuring instrument (Perkin Elmer, Inc.).
Test Example 1 described above can be performed according to “Analytical Biochemistry, 2003, 313, 234-245; Alexander Gray et al”.
A general note: Bead proximity is the source of the signal in Alpha formats.

Assay [1] concerns human colon cancer cell line HCT116. As to the kind of experiment: Cell proliferation inhibitory activity (Cell Counting Kit-8), colon cancer HCT116. It counts as cell-based. As to conditions: HCT-116, 96 h, HCT116, 4 days. As for the experimental part:
(§1) The cell proliferation inhibitory activity was measured for compounds of the present invention represented by formula (I). Cancer cell proliferation inhibitory activity was measured using the Cell Counting Kit-8 (Dojindo). 2000 cells each of human colon cancer cell line HCT116 purchased from the American Type Culture Collection (Virginia, USA) were seeded into each well of a 96-well culture plate followed by the addition of a predetermined concentration of the compounds and cultivating in a CO2environment for 4 days at 37° C. On the fourth day of cultivating, the Cell Counting Kit-8 solution was added and absorbance (measuring wavelength: 450 nm, reference wavelength: 615 nm) was measured in accordance with the protocol provided with the kit.
(Formazan colour is commonly taken as a measure of viable cells.)

Assay [2] relates to human prostate cancer cell line PC3. As to the kind of experiment: Cell proliferation inhibitory activity (Cell Counting Kit-8), prostate cancer PC3. It counts as cell-based. As to conditions: 96 h, PC3, 4 days. As for the experimental part:
as §1
(§2) Cancer cell proliferation inhibitory activity was also measured for human lung cancer cell line NCI-H460 and human prostate cancer cell line PC3 purchased from the American Type Culture Collection. 1000 and 3000 cells of NCI-H460 and PC3, respectively, were seeded into each well of a 96-well culture plate followed by testing in the same manner as the human colon cancer cell line and calculating the percentage of cell proliferation inhibition at 2.5 μM.

For assay [3], the system named is human lung cancer cell line NCI-H460. As to the kind of experiment: Cell proliferation inhibitory activity (Cell Counting Kit-8), lung cancer NCI-H460. It counts as cell-based. As to conditions: 96 h, NCI-H460, 4 days, read-out: Cell proliferation inhibitory activity (% Inhibition at 2.5 μM) Non-small cell lung cancer (NCI-H460). As for the experimental part: as §1, §2

Counter-ions that a name gives are not always drawn.

Broadly, the IC50 is the concentration needed to halve the response being measured.

human PI3K(p110α/p85α), sequence (P42336 whole entry): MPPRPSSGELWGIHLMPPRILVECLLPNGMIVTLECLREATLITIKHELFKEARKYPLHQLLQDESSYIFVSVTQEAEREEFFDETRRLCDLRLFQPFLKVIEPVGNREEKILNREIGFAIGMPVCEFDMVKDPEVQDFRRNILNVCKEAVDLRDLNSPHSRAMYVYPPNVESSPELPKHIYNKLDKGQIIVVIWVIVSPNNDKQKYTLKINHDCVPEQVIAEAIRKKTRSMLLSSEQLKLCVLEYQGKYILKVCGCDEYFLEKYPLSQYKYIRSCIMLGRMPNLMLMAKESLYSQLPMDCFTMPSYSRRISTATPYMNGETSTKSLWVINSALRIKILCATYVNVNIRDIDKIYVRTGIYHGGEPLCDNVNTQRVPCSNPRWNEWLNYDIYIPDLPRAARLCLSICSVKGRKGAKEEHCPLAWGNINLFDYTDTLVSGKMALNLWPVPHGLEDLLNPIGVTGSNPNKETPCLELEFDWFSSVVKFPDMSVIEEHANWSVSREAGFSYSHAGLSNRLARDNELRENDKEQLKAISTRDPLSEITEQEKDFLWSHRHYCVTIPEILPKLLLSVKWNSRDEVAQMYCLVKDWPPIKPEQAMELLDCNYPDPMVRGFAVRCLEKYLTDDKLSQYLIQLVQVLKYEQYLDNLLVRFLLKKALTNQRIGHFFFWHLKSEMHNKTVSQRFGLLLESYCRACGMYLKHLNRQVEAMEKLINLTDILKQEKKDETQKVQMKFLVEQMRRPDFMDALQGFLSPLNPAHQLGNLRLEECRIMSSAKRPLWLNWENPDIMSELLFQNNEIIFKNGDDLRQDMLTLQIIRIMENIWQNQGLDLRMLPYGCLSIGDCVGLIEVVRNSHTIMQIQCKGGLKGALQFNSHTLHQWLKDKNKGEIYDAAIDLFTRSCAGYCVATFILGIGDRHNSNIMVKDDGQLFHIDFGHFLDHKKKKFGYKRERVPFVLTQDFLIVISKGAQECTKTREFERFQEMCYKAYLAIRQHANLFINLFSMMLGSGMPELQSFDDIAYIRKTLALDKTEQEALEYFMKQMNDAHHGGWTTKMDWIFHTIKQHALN
human PI3K(p110α/p85α), sequence (P27986 whole entry partner): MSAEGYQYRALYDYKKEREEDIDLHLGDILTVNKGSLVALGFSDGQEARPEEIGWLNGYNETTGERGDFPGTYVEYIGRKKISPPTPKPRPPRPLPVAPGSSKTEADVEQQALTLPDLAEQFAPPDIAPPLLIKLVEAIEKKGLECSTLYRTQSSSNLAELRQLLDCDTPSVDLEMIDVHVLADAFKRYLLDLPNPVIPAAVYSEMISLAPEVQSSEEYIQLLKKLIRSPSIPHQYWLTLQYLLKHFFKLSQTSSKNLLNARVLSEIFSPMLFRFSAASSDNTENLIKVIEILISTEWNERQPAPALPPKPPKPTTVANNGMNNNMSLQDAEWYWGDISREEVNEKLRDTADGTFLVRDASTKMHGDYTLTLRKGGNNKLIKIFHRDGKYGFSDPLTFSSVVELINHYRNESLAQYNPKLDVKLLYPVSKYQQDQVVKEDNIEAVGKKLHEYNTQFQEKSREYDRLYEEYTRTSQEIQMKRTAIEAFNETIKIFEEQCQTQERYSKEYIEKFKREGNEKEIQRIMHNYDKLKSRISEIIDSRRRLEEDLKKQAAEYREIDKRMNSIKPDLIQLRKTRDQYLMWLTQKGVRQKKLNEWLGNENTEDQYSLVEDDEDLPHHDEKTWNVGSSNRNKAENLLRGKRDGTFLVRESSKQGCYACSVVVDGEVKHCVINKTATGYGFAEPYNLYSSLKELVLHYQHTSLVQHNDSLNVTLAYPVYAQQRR

Consider `CNC(=S)N1CCc2c(-c3cccc(O)c3)nc(N3CCOCC3)nc21` [Example C-55, 4-(3-Hydroxy-phenyl)-2-morpholin-4-yl-5,6-dihydro-pyrrolo[2,3-d]pyrimidine-7-carbothioic acid methylamide trifluoroacetic acid salt], for which, at human PI3K(p110α/p85α), the IC50 came out at 0.05 µM. Also, the inhibition at 2.5 µM in assay [1] is 72%; in assay [2], 87%; in assay [3], 89%.
The matching figures for `CN(C)CCNC(=O)c1cccc(-c2nc(N3CCOCC3)nc3c2CCN3c2cccnc2)c1` [Example G-05, N-(2-dimethylaminoethyl)-3-(2-morpholin-4-yl-7-pyridin-3-yl-6,7-dihydro-5H-pyrrolo[2,3-d]pyrimidin-4-yl)-benzamide]: 0.36 µM, 38%, 49% and 55%.
The matching figures for `Nc1ncc(-c2nc(N3CCOCC3)nc3c2CCN3c2ccc(C(=O)N3CCN(c4ccncc4)CC3)cc2)cn1` [Example D-265, {4-[4-(2-Amino-pyrimidin-5-yl)-2-morpholin-4-yl-5,6-dihydro-pyrrolo[2,3-d]pyrimidin-7-yl]-phenyl}-(4-pyridin-4-yl-piperazin-1-yl)-methanone]: 0.006 µM, 98%, 96% and 71%.
With `Nc1ncc(-c2nc(N3CCOCC3)nc3c2CCN3c2ccc(C(=O)N3CCNCC3)nc2)cn1` [Example D-128, {5-[4-(2-Amino-pyrimidin-5-yl)-2-morpholin-4-yl-5,6-dihydro-pyrrolo[2,3-d]pyrimidin-7-yl]-pyridin-2-yl}-piperazin-1-yl-methanone], the IC50 at human PI3K(p110α/p85α) was determined as 0.008 µM. Also, the inhibition at 2.5 µM was determined as 81% in assay [1], 60% in assay [2] and 95% in assay [3].
The matching figures for `Oc1cccc(-c2nc(N3CCOCC3)nc3c2CCN3c2ccc3[nH]cnc3c2)c1` [Example A-14, 3-[7-(1H-benzimidazol-5-yl)-2-morpholin-4-yl-6,7-dihydro-5H-pyrrolo[2,3-d]pyrimidin-4-yl]-phenol]: 0.08 µM, 76%, 98% and 95%.
For `CN(CCN1CCOCC1)C(=O)c1ccc(N2CCc3c(-c4cnc(N)nc4)nc(N4CCOCC4)nc32)cc1` [Example D-139, 4-[4-(2-Amino-pyrimidin-5-yl)-2-morpholin-4-yl-5,6-dihydro-pyrrolo[2,3-d]pyrimidin-7-yl]-N-methyl-N-(2-morpholin-4-yl-ethyl)-benzamide], the IC50 on human PI3K(p110α/p85α) was 0.009 µM. Besides, the inhibition at 2.5 µM in assay [1] is 90%; in assay [2] it was 89%; in assay [3] it was 72%.
The matching figures for `Nc1ncc(-c2nc(N3CCOCC3)nc3c2CCN3c2ccc(C(=O)NCc3ccncc3)cc2)cn1` [Example D-264, 4-[4-(2-Amino-pyrimidin-5-yl)-2-morpholin-4-yl-5,6-dihydro-pyrrolo[2,3-d]pyrimidin-7-yl]-N-pyridin-4-ylmethyl-benzamide]: 0.007 µM, 63%, 72% and 82%.
For the compound `CN1CCN(c2cc(F)c(NC(=O)N3CCc4c(-c5cnc(N)nc5)nc(N5CCOCC5)nc43)c(F)c2)CC1` [Example D-23, 4-(2-Amino-pyrimidin-5-yl)-2-morpholin-4-yl-5,6-dihydro-pyrrolo[2,3-d]pyrimidine-7-carboxylic acid [4-(4-methyl-piperazin-1-yl)-2,6-difluoro-phenyl]-amide], on human PI3K(p110α/p85α), the IC50 turned out to be 0.006 µM. In addition, the inhibition at 2.5 µM in assay [1] was 99%; in assay [2], 89%; in assay [3], 100%.
Turning to `Nc1ncc(-c2nc(N3CCOCC3)nc3c2CCN3c2ccc(C(=O)N3CCN(c4cccnc4)CC3)cc2)cn1` [Example D-20, {4-[4-(2-Amino-pyrimidin-5-yl)-2-morpholin-4-yl-5,6-dihydro-pyrrolo[2,3-d]pyrimidin-7-yl]-phenyl}-(4-pyridin-3-yl-piperazin-1-yl)-methanone], the IC50 at human PI3K(p110α/p85α) worked out at 0.046 µM. The inhibition at 2.5 µM came to 83% in assay [1], 99% in assay [2] and 99% in assay [3].
In the case of `Nc1ncc(-c2nc(N3CCOCC3)nc3c2CCN3c2ccc(CN3CCN(CCF)CC3)cc2)cn1` [Example D-329, 5-(7-{4-[4-(2-fluoroethyl)-piperazin-1-ylmethyl]-phenyl}-2-morpholin-4-yl-6,7-dihydro-5H-pyrrolo[2,3-d]pyrimidin-4-yl)-pyrimidin-2-ylamine], the IC50 at human PI3K(p110α/p85α) was 0.26 µM. Further, the inhibition at 2.5 µM in assay [1] came to 73%; in assay [2] it was 65%; in assay [3], 81%.
The matching figures for `c1cc(N2CCc3c(-c4ccc5[nH]cnc5c4)nc(N4CCOCC4)nc32)ccn1` [Example B-22, 4-(1H-benzimidazol-5-yl)-2-morpholin-4-yl-7-pyridin-4-yl-6,7-dihydro-5H-pyrrolo[2,3-d]pyrimidine]: 0.3 µM, 71%, 22% and 72%.
As for `Nc1ncc(-c2nc(N3CCOCC3)nc3c2CCN3c2cc(C(=O)N3CCOCC3)ccc2F)cn1` [Example D-16, {3-[4-(2-Amino-pyrimidin-5-yl)-2-morpholin-4-yl-5,6-dihydro-pyrrolo[2,3-d]pyrimidin-7-yl]-4-fluoro-phenyl}-morpholin-4-yl-methanone], the IC50 on human PI3K(p110α/p85α) was determined as 0.23 µM. The inhibition at 2.5 µM was 74% in assay [1], 73% in assay [2] and 76% in assay [3].
The matching figures for `CN1CCN(Cc2ccc(N3CCc4c(-c5cnc(N)nc5)nc(N5CCOCC5)nc43)cc2)CC1` [Example D-26, 5-{7-[4-(4-methyl-piperazin-1-ylmethyl)-phenyl]-2-morpholin-4-yl-6,7-dihydro-5H-pyrrolo[2,3-d]pyrimidin-4-yl}-pyrimidin-2-ylamine]: 0.048 µM, 87%, 82% and 84%.
In the case of `Oc1cccc(-c2nc(N3CCOCC3)nc3c2CCN3c2ccnc(N3CCOCC3)c2)c1` [Example A-44, 3-[2-Morpholin-4-yl-7-(2-morpholin-4-yl-pyridin-4-yl)-6,7-dihydro-5H-pyrrolo[2,3-d]pyrimidin-4-yl]-phenol], the IC50 at human PI3K(p110α/p85α) is 0.05 µM. The figures for the inhibition at 2.5 µM in assay [1], in assay [2] and in assay [3] were 69%, 79% and 82%, respectively.
The matching figures for `Nc1ncc(-c2nc(N3CCOCC3)nc3c2CCN3c2ccc(CN3CCN(CCC(F)(F)F)CC3)cc2)cn1` [Example D-332, 5-(2-morpholin-4-yl-7-{4-[4-(3,3,3-trifluoropropyl)piperazin-1-ylmethyl]-phenyl}-6,7-dihydro-5H-pyrrolo[2,3-d]pyrimidin-4-yl}-pyrimidin-2-ylamine]: 0.21 µM, 60%, 43% and 54%.

(Values after patent US8022205B2, “Pyrimidine derivatives as PI3K inhibitor and use thereof” (Chugai Seiyaku Kabushiki Kaisha, priority 2006, dated 2011).)
